Source: PMC8949366, “Synthesis of Marine Cyclopeptide Galaxamide Analogues as Potential Anticancer Agents” (Marine Drugs, 2022)
≈ marks a conversion by molar mass, not a printed value. Where “and” joins values, the source holds several entries; their conditions need not be identical. Identical values can stand only once. Entries after “also recorded” stand apart in the source; their conditions may differ. Like-named read-outs stand apart in the source and are kept apart here. Square brackets hold non-standard residues; d marks the D form. Peptide text beside a SMILES is read from it.

How the values were obtained:
[1] = tested on: A549; assay type: cell-based, human; conditions: 72 h
Description: (§1) Cell culture: MCF-7/MD-MAB-231 (human breast cancer cell line ATCC HTB-22/HTB-26), Hep G2 (human liver cancer cell line ATCC HB-8065), Hela (human cervical carcinoma cell line ATCC CCL-2), A459 (human lung cancer cell line ATCC CCL-185), and HUVEC (primary umbilical vein endothelial cell line ATCC PCS-100-010) were obtained from the Jinan Department of Pathology, University School of Medicine (Jinan University, Guangzhou, China). The cells were cultured in a Modified Eagle’s Medium (DMEM) including 10% fetal bovine serum, 1% penicillin-streptomycin, and antifungal agent, and cultured under standard conditions (5% CO2 atmosphere and temperature at 37 °C). The MTT method was used to evaluate the cytotoxicities of galaxamide and its analogues on the five cancerous cells. In this experiment, the number of regulated cells was 2 × 10^3 cells/well. Then, the cells, as well as galaxamide and its analogues of different concentrations (0, 2.5, 5, and 10 μg/mL), were seeded on a 96-well cell culture plate and cultured in a 37 °C, 5% CO2 incubator for 72 h. After that, 20 µL/well of MTT solution (5 mg/mL phosphate-buffered saline) was added and incubated for 5 h. The medium was discarded and replaced with 100 µL/well of DMSO to dissolve the formazan salt. The color intensity of the cell culture at 570 nm was measured using a microplate spectrophotometer (SpectroAma™ 250, Winooski, VT, USA).

[2] = tested on: HUVEC; assay type: cell-based, human; conditions: 72 h
Description: as §1

[3] = tested on: Hela; assay type: cell-based, human; conditions: 72 h
Description: as §1

[4] = tested on: HepG2; assay type: cell-based, human; conditions: 72 h
Description: as §1

[5] = tested on: MCF-7; assay type: cell-based, human; conditions: 72 h
Description: as §1

[6] = tested on: MD-MBA-231; assay type: cell-based, human; conditions: 72 h
Description: as §1

[7] = tested on: MCF-7 cells; assay: Cell cycle distribution by propidium iodide staining / flow cytometry; assay type: cell-based, human; conditions: 0, 2.5, 5, 10 µg/mL, 72 h
Description: Therefore, propidium iodide (PI) staining method was used to further investigate the changes in the cell cycle distribution of MCF-7. In particular, MCF-7 cells were exposed to galaxamide, Z-3, and Z-6 with concentrations of 0, 2.5, 5, and 10 µg/mL for 72 h. Generally, the main effects of galaxamide, Z-3, and Z-6 on MCF-7 cells were in the G0/G1 phase. There was no obvious sub diploid peak in flow cytometry.
(§2) The concentration of 1 × 10^4 cells per well of MCF-7 cells were seeded in 96-well plates. The cell cultures were added to the compounds with a concentration of 0, 2.5, 5, and 10 µg/mL, and incubated for 72 h. After that, 5 µL of Annexin V-fluorescein isothiocyanate (FITC) and 5 µL of PI were added for dual staining of the cells for analysis by FACS flow cytometry. Cell cycles and apoptotic cells were determined by counting the FITC-positive and PI-negative fractions.

[8] = tested on: MCF-7 cells; assay: Annexin V-FITC/PI double staining apoptosis, flow cytometry; assay type: cell-based, human; conditions: 0, 2.5, 5, 10 µg/mL, 72 h
Description: The Annexin V-FITC/PI double staining method was used to analyze the changes in the apoptosis of MCF-7 cells after 72 h of galaxamide, Z-3, and Z-6 exposure. […] At low concentrations, the effects of all the tested compounds were not obvious. When the concentration reached 10 μg/mL, the apoptotic effects of galaxamide, Z-3, and Z-6 on MCF-7 cells were more obvious in the late apoptotic state.
as §2
The apoptotic cells were quantified according to the instructions provided in an Annexin V-FITC (Sigma-Aldrich, St. Louis, MO, USA) cell apoptosis assay kit. Briefly, about 1.5 × 10^5 cells were plated in 96-well plates and treated with galaxamide and its representative analogues (0, 2.5, 5, and 10 µg/mL) for 48 h. The cells were then resuspended in a […] binding buffer. Afterward, […] of annexin V-fluorescein isothiocyanate (FITC) was added, followed by incubation in darkness at room temperature for 10 min. The cells were again resuspended in […] binding buffer and stained with […] PI. The prepared cells were then analyzed using a flow cytometry (Coulter Epics Elite, Miami, FL, USA). The cells in the FITC-positive and PI-negative fractions were regarded as apoptotic cells.

[9] = tested on: MCF-7 cells; assay: Hoechst 33,342 staining of nuclear morphology; assay type: cell-based, human; conditions: 72 h
Description: The morphological alteration of MCF-7 cells was analyzed by the method of Hoechst 33,342 staining (Figure 5). […] The pyknotic nuclei increased with the increasing concentration of these compounds.
[…] After that, the cell culture was washed with 1 mL of PBS and then added with 3 mL of 4% paraformaldehyde solution for 15 min. Then, 1 mL of the prepared Hoechst 33,342 staining solution was added. The resulting mixture was incubated at room temperature for 15 min in the dark.

[10] = amide bond, 15-membered ring, PyBOP/DIEA, DCM, 0.375 mM, 25.0 °C

Row | Compound | IC50 A549 [1] [µg/mL] | IC50 HUVEC [2] [µg/mL] | IC50 Hela [3] [µg/mL] | IC50 HepG2 [4] [µg/mL] | IC50 MCF-7 [5] [µg/mL] | IC50 MD-MBA-231 [6] [µg/mL] | also measured
1 | CC(C)C[C@@H]1NC(=O)[C@H](CC(C)C)N(C)C(=O)[C@H](CC(C)C)NC(=O)[C@@H]2CCCN2C(=O)[C@H](CC(C)C)NC1=O [Compound Z-1, Cyclo (Leu-N-Me-Leu-Leu-Pro-Leu)] | 4.92 ± 0.84 (≈ 8.73 µM) | >40 | 11.56 ± 0.65 (≈ 20.5 µM) | 7.57 ± 0.17 (≈ 13.4 µM) | 5.85 ± 1.28 (≈ 10.4 µM) | 17.81 ± 0.60 (≈ 31.6 µM) | 
2 | CC(C)C[C@@H]1NC(=O)[C@@H]2CCCN2C(=O)[C@H](CC(C)C)NC(=O)[C@@H]2CCCN2C(=O)[C@H](CC(C)C)NC1=O [Compound Z-2, Cyclo (Leu-Pro-Leu-Pro-Leu)] (cyclo(LLPLP)) | 7.97 ± 2.06 (≈ 14.9 µM) | >40 | 14.50 ± 0.36 (≈ 27.2 µM) | 11.95 ± 0.64 (≈ 22.4 µM) | 4.68 ± 1.22 (≈ 8.77 µM) | 14.45 ± 1.10 (≈ 27.1 µM) | 
3 | CC(C)C[C@@H]1NC(=O)[C@@H](CC(C)C)NC(=O)[C@@H]2CCCN2C(=O)[C@H](CC(C)C)NC(=O)[C@@H]2CCCN2C1=O [Compound Z-3, Cyclo (Leu-Pro-Leu-Pro-Leu)] (cyclo(LPLP[dL])) | 6.43 ± 0.43 (≈ 12 µM) | >40 | 5.57 ± 0.45 (≈ 10.4 µM) | 5.05 ± 0.45 (≈ 9.46 µM) | 2.25 ± 0.42 (≈ 4.22 µM) | 6.34 ± 0.60 (≈ 11.9 µM) | Effect on cell cycle of MCF-7 (in words) [7]: mainly blocked the growth of cells in the G0/G1 phase; Apoptosis of MCF-7 cells (in words) [8]: significantly higher than those of galaxamide; also recorded: concentration-dependent apoptosis; Nuclear morphology of MCF-7 cells (in words) [9]: the morphology of the nuclei was significantly changed
4 | CC(C)C[C@@H]1NC(=O)[C@@H]2CCCN2C(=O)[C@H](CC(C)C)NC(=O)[C@@H]2CCCN2C(=O)[C@@H](CC(C)C)NC1=O [Compound Z-4, Cyclo (Leu-Pro-D-Leu-Pro-Leu)] (cyclo(LPL[dL]P)) | 9.85 ± 0.95 (≈ 18.5 µM) | >40 | 7.38 ± 0.83 (≈ 13.8 µM) | 15.23 ± 1.14 (≈ 28.5 µM) | 4.88 ± 0.58 (≈ 9.14 µM) | 22.09 ± 1.12 (≈ 41.4 µM) | 
5 | CC(C)C[C@@H]1NC(=O)[C@@H]2CCCN2C(=O)[C@@H](CC(C)C)NC(=O)[C@@H]2CCCN2C(=O)[C@H](CC(C)C)NC1=O [Compound Z-5, Cyclo (Leu-Pro-Leu-Pro-D-Leu)] (cyclo(LLP[dL]P)) | 9.50 ± 1.13 (≈ 17.8 µM) | >40 | 12.12 ± 0.95 (≈ 22.7 µM) | 14.98 ± 0.93 (≈ 28.1 µM) | 13.43 ± 1.96 (≈ 25.2 µM) | 8.48 ± 1.12 (≈ 15.9 µM) | 
6 | CC(C)C[C@@H]1NC(=O)[C@@H]2CCCN2C(=O)[C@@H](CC(C)C)NC(=O)[C@@H](CC(C)C)NC(=O)[C@@H]2CCCN2C1=O [Compound Z-6, Cyclo (D-Leu-Pro-Leu-Pro-D-Leu)] (cyclo(LP[dL][dL]P)) | 5.96 ± 0.41 (≈ 11.2 µM) | 38.72 ± 0.67 (≈ 72.5 µM) | 5.69 ± 0.37 (≈ 10.7 µM) | 2.91 ± 0.17 (≈ 5.45 µM) | 1.65 ± 0.30 (≈ 3.09 µM) | 4.59 ± 0.27 (≈ 8.6 µM) | Effect on cell cycle of MCF-7 (in words) [7]: mainly blocked the growth of cells in the G0/G1 phase; Apoptosis of MCF-7 cells (in words) [8]: significantly higher than those of galaxamide; also recorded: concentration-dependent apoptosis; Nuclear morphology of MCF-7 cells (in words) [9]: the morphology of the nuclei was significantly changed
7 | CC(C)C[C@@H]1NC(=O)[C@@H]2CCCN2C(=O)[C@@H](CC(C)C)NC(=O)[C@@H]2CCCN2C(=O)[C@@H](CC(C)C)NC1=O [Compound Z-7, Cyclo (Leu-Pro-D-Leu-Pro-D-Leu)] (cyclo(L[dL]P[dL]P)) | 9.97 ± 1.00 (≈ 18.7 µM) | >40 | 18.21 ± 1.35 (≈ 34.1 µM) | 13.85 ± 1.99 (≈ 26 µM) | 13.28 ± 3.28 (≈ 24.9 µM) | 16.52 ± 1.70 (≈ 31 µM) | 
8 | CC(C)C[C@H]1NC(=O)[C@@H]2CCCN2C(=O)[C@@H](CC(C)C)NC(=O)[C@@H]2CCCN2C(=O)[C@@H](CC(C)C)NC1=O [Compound Z-8, Cyclo (D-Leu-Pro-D-Leu-Pro-D-Leu)] (cyclo(P[dL]P[dL][dL])) | 15.88 ± 1.42 (≈ 29.8 µM) | >40 | 7.97 ± 0.61 (≈ 14.9 µM) | 9.00 ± 0.83 (≈ 16.9 µM) | 7.82 ± 1.18 (≈ 14.7 µM) | 20.16 ± 2.24 (≈ 37.8 µM) | 
9 | CC(C)C[C@H]1NC(=O)[C@@H]2CCCN2C(=O)[C@@H](CC(C)C)NC(=O)[C@@H]2CCCN2C(=O)[C@@H](CC(C)C)NC1=O [Cyclo (D-Leu-Pro-D-Leu-Pro-D-Leu)] |  |  |  |  |  |  | ring closure, yield after HPLC ([10]; from H-dLeu-Pro-dLeu-Pro-dLeu-OH?): 46.2%
10 | CC(C)C[C@@H]1NC(=O)[C@@H]2CCCN2C(=O)[C@@H](CC(C)C)NC(=O)[C@@H](CC(C)C)NC(=O)[C@@H]2CCCN2C1=O [Cyclo (D-Leu-Pro-Leu-Pro-D-Leu)] |  |  |  |  |  |  | ring closure, yield after HPLC ([10]; from H-dLeu-Pro-Leu-Pro-dLeu-OH?): 34.5%
11 | CC(C)C[C@@H]1NC(=O)[C@H](CC(C)C)N(C)C(=O)[C@H](CC(C)C)NC(=O)[C@@H]2CCCN2C(=O)[C@H](CC(C)C)NC1=O [Cyclo (Leu-N-Me-Leu-Leu-Pro-Leu)] |  |  |  |  |  |  | ring closure, yield after HPLC ([10]; from H-Leu-Pro-Leu-MeLeu-Leu-OH): 40.7%
12 | CC(C)C[C@@H]1NC(=O)[C@@H]2CCCN2C(=O)[C@@H](CC(C)C)NC(=O)[C@@H]2CCCN2C(=O)[C@@H](CC(C)C)NC1=O [Cyclo (Leu-Pro-D-Leu-Pro-D-Leu)] |  |  |  |  |  |  | ring closure, yield after HPLC ([10]; from H-dLeu-Pro-dLeu-Pro-Leu-OH?): 54.6%
13 | CC(C)C[C@@H]1NC(=O)[C@@H]2CCCN2C(=O)[C@@H](CC(C)C)NC(=O)[C@@H]2CCCN2C(=O)[C@H](CC(C)C)NC1=O [Cyclo (Leu-Pro-D-Leu-Pro-Leu)] |  |  |  |  |  |  | ring closure, yield after HPLC ([10]; from H-Leu-Pro-dLeu-Pro-Leu-OH?): 36.4%
14 | CC(C)C[C@@H]1NC(=O)[C@@H]2CCCN2C(=O)[C@H](CC(C)C)NC(=O)[C@@H]2CCCN2C(=O)[C@@H](CC(C)C)NC1=O [Cyclo (Leu-Pro-Leu-Pro-D-Leu)] |  |  |  |  |  |  | ring closure, yield after HPLC ([10]; from H-dLeu-Pro-Leu-Pro-Leu-OH?): 58.9%
15 | CC(C)C[C@@H]1NC(=O)[C@@H]2CCCN2C(=O)[C@H](CC(C)C)NC(=O)[C@@H]2CCCN2C(=O)[C@H](CC(C)C)NC1=O [Cyclo (Leu-Pro-Leu-Pro-Leu)] |  |  |  |  |  |  | ring closure, yield after HPLC ([10]; from H-Leu-Pro-Leu-Pro-Leu-OH?): 35.5% and 53.9%
